In paper PMC5684143, “New melanocortin-like peptide of E. coli can suppress inflammation via the mammalian melanocortin-1 receptor (MC1R): possible endocrine-like function for microbes of the gut” (NPJ Biofilms and Microbiomes, 2017):

Legend:
RAW 264.7 cells = test: LPS-induced TNF release by RAW 264.7 cells; format: cell-based, murine; settings: for TNF-accumulated (% of control): peptide 10^-12 M, LPS 10 ng/ml, TNF by ELISA at 6 h, LPS alone set at 100%, mean ± SEM
Procedure: Murine macrophage-like RAW 264.7 cells were obtained from American Type Culture Collection, and were grown in Dulbecco’s Modified Eagle’s Medium (DMEM, Life Technologies) containing 10% (vol/vol) heat-inactivated fetal bovine serum (FBS, Hyclone Lab. Inc.), penicillin 100 U/ml, and streptomycin 100 μg/ml (BioWhittaker Inc.). Cells were suspended in medium and incubated in 24-well or 48-well tissue-culture plates overnight in a humidified incubator (37 °C, 5% CO2). Growth medium was removed and replaced by Opti-MEM I serum-free medium (Life Technologies) overnight. In the experiments, cell monolayers were stimulated with HMGB1 or LPS, in the absence or presence of MECO-1 or alpha-MSH; cell-free supernatants were assayed for TNF by ELISA or HMGB1 by western blotting.
Concentrations of TNF and IL-6 were each determined using a commercially available enzyme-linked immunosorbent assay (ELISA) kit (R&D System Inc.) as previously described.[34] The levels of TNF or IL-6 were calculated with reference to standard curves.
Fig. 2 Cytokine-induced TNF release inhibited by MECO-1. a Lipopolysaccharide (LPS), derived from the cell wall of Gram-negative bacteria, is a TLR4 and TLR2 agonist. RAW 264.7 cells were treated with MECO-1 and LPS simultaneously and incubated overnight. Supernatants were tested for TNF with ELISA. b Poly I:C, synthetic double stranded RNA, is recognized by TLR3. RAW 264.7 cells were pre-treated with MECO-1 and then stimulated with Poly I:C. Supernatants were tested in ELISA by TNF. c Peptidoglycan (PGN), another TLR2 agonist, is ubiquitous in the cell wall of bacteria. RAW 264.7 cells were pre-treated with MECO-1 and then stimulated with PGN; after overnight stimulation, supernatants were harvested and tested for TNF ELISA. d HMGB-1. Each vertical bar is the mean of three experimental points, using HMGB-1 to induce TNF release. Three sets of three experiments were used for the measurement of inhibition
Fig. 5 a Bioactive analogues of MECO-1. Murine macrophage-like RAW 264.7 cells were incubated with lipopolysaccharide (LPS, 4 ng/ml) in the absence or presence of MECO-1 or BACTN or BACFR, synthetic peptides based on the C-termini of EF-G of Bacteroides thetaiotamicron and Bacteroides fragilis. EFG-2 refers to human mitochondrial EFG-2 (mtEFG2). For Bacteroides thetaiotamicron, we used a 38-mer consisting of residues 681–703 shown in Fig. 4c followed by 704–718 QDKLIKDFEAKQTEE. For Bacteroides fragilis, we used a 33-mer consisting of residues, 681–703 shown in Fig. 4c followed by 704–713 = QDKLIKDFES. At 6 h after stimulation, aliquots of cell-free medium were examined. In other experiments, the synthetic peptide based on human mitochondrial EF-G1 (mtEFG1) gave results indistinguishable from EF-G2 (data not shown). The precise structure of the synthetic peptides is indicated in the text (see section “Results” and Table 1). Shown is a representative experiment.

Balb/C mice = test: Lethal LPS endotoxin sepsis in mice, survival; format: in vivo; settings: two experiments pooled; peptide i.p. twice daily for 3 days; saline 0 of 19; alpha-MSH 5 of 20, MECO-1 15 of 30
From the text: Kaplan–Meier analysis was used to determine statistical significance of the differences in survival of mice. p ≦ 0.05 was considered significant. Values in the figures were expressed as mean(±)S.E.M. of two or three independent experiments, where each experimental point was derived from duplicates or triplicates. Student’s two-tailed t-test was used to compare the means between groups. p-value of 0.05 or less was considered statistically significant. The design (including sample size) of experiments in Figs. 2–7, and Table 1 followed closely the design of previous experiments by us and others. The results of prior experiments in our laboratory (both in vitro experiments and animal experiments) were used to decide sample size for each of the experiments shown.[37]–[41]
Fig. 6 MECO-1 rescues mice from lethal sepsis. a Endotoxin. Balb/C mice (males) were injected once intraperitoneally with LPS at a dose estimated to be an LD75. Immediately thereafter, the first doses of MECO-1 at 0.5 mg/kg (low dose), MECO-1 at 5 mg/kg (high dose), alpha-MSH at 5 mg/kg (high dose) or saline alone were administered intraperitoneally. Peptide or saline were given twice daily for 3 days for a total of six doses. Ten mice were in each group. Survival was monitored daily for 2 weeks. […] Animals were monitored for survival for 14 days. […]

For “alpha-melanocyte-stimulating hormone [alpha-MSH]”, the “peptide concentration at which attenuation of LPS-induced TNF-alpha release was observed” value (RAW 264.7 cells; RAW 264.7 cells, overnight incubation, ELISA) was 10^−15 M, the “TNF-accumulated (% of control)” value (RAW 264.7 cells; agouti 0 pM, RAW 264.7 cells) was 67.05 ± 10.2 % of control and the “TNF-accumulated (% of control)” value (RAW 264.7 cells; agouti 10 pM, RAW 264.7 cells) was 132.6 ± 4.9 % of control. For the same substance, the “TNF-accumulated (% of control)” value (RAW 264.7 cells; agouti 10^3 pM, RAW 264.7 cells) was 138.6 ± 12.4 % of control, the “TNF-accumulated (% of control)” value (RAW 264.7 cells; agouti 10^5 pM, RAW 264.7 cells) was 122.2 ± 4.3 % of control and the “inhibition of LPS-induced TNF-alpha release (valley)” value (RAW 264.7 cells; at 10^−11–10^−10 M peptide, attenuation lost above 10^−10 M) was ~90%. For the same substance, the “mice rescued from lethal dose of LPS endotoxin” value (Balb/C mice) was 25%.
